Source: patent US12636368B2, “Ionizable lipids for nucleic acid delivery” (Global Life Sciences Solutions Canada ULC, priority 2019, dated 2026)
Like-named read-outs stand apart in the source and are kept apart here.

How the values were obtained:
[1] = Nucleic acid encapsulation efficiency by RiboGreen assay; type: physicochemical
Procedure: Messenger RNA or plasmid NAT was diluted using sodium acetate buffer to the required concentration. Lipid nucleic acid particle samples were then prepared by running both fluids using the NanoAssemblr® Spark instrument. […] The lipid nucleic acid particles made in the instrument were immediately diluted down with 48 μL Ca and Mg free 1×PBS at pH 7.4 in the aqueous output well. These nucleic acid lipid particles were immediately collected into microcentrifuge tubes containing 96 μL of Ca and Mg free 1×PBS at pH 7.4. Encapsulation efficiency was measured by a modified Ribogreen™ assay (Quanti-iT RiboGreen™ RNA assay kit, Fisher). Observed particle attributes were generally sized from 60-200 nm for mRNA, depending on lipid composition and method of production.
(§1) Physical characteristics of lipid nanoparticle (LNP) compositions comprising compounds according to Formula (I) and that were manufactured on the NanoAssemblr® Spark and Benchtop, are shown in Tables 6 and 7 below. Size, size variation of the LNP (PDI), encapsulation efficiency, and pKa are shown. The physical characteristics of these LNP are important from a standpoint of stability, biodistribution, and cell membrane crossing. There was good encapsulation in all the formulations, with polydispersity (PDI) under 0.3. Size and PDI were measured using dynamic light scattering techniques, and nucleic acid encapsulation efficiency was calculated from a modified Quant-iT RiboGreen RNA assay.

C57BL/6 mice = assay: OVA mRNA LNP intramuscular immunization, anti OVA-IgG ELISA; type: in vivo; conditions: i.m., days 1 and 10
Source text: LNP with the composition LM02b were used to encapsulate OVA antigen encoded CleanCap® OVA WT mRNA [TriLink L7610] or CleanCap® OVA 5-moU mRNA [TriLink L7210]. A lipid mixture of Ionizable lipid, DOPE, Cholesterol, and PEG-DMG2000, all in ethanol, was mixed with a low PH buffered solution of OVA mRNA at an N/P ratio of 8 using a NanoAssemblr® Ignite™ microfluidic mixer. The LNP were filtered using the Amicon™ ultra filtration technique and characterized for Size, PDI and Encapsulation Efficiency. Size and PDI were measured using dynamic light scattering techniques, and nucleic acid encapsulation efficiency was calculated from the Quant-iT RiboGreen RNA assay. […]
All animals were handled according to the Institutional Animal Care and Use Committee ethics protocols. […] Aliquots of serum samples were thawed and analyzed at appropriate dilutions for OVA expression and for IgG measurements using standard ELISA techniques.
Anti OVA-IgG ELISA of serum samples: Sera from the immunized mice were collected at 2 weeks post second immunization. OVA-specific production of IgG in response to OVA-encoded mRNA in various LNPs were measured by ELISA as described supra. […] After 30 minutes of incubation, a stop solution of 2 N sulphuric acid was added and a plate reader was used to determine absorbance at 450 nm. […]

[2] = TNS assay, surface pKa of lipid nanoparticles; type: physicochemical
Procedure: In embodiments of the invention, the experimental pKa of formulated lipid nanoparticles comprising lipids in Table 1 is calculated using the 2-(p-toluidinyl)naphthalene-6-sulfonic acid (TNS) assay. The procedure for the TNS assay is described in Example 25.
The pKa of each cationic lipid was determined in lipid nanoparticles using an assay based on fluorescence of 6-(p-Toluidino)-2-naphthalenesulfonic acid sodium salt (TNS, Sigma Aldrich), which is a fluorescent probe for the conformational state of proteins5. Empty lipid nanoparticles comprising ionizable lipid in LM02 composition in distilled water at a concentration of 3.125 mM total lipid are formulated using NanoAssemblr® Spark™, and were then was characterized for LNP quality on the Zetasizer™ using a 30× dilution with 1×PBS in the low volume cuvette. Lipid nanoparticles were further diluted 4× using distilled water to 0.781 mM total lipid. TNS was prepared as a 25 μM stock solution in distilled water. Then 6.4 μL of diluted LNP samples of 0.781 mM total lipid were mixed with 10 μL of diluted TNS to a final volume of 250 μL with buffer containing 10 mM HEPES, 10 mM MES, 10 mM NH4OAc and 130 mM NaCl where the pH ranged from 3 to 9 in 0.5 pH increments.
Samples were mixed thoroughly, and the fluorescence intensity was measured at room temperature in a BioTek™ Synergy™ H1 Hybrid Multi-Mode Monochromator™ Fluorescence Microplate Reader using excitation and emission wavelengths of 321 nm and 445 nm respectively. A sigmoidal best fit analysis was applied to the fluorescence data using GraphPad Prism™ software, and the pKa was measured as the pH at half-maximal fluorescence intensity.

[3] = LNP size and PDI by dynamic light scattering; type: physicochemical
Procedure: After the lipid particles were made as described supra, particle size (hydrodynamic diameter of the particles) was determined by Dynamic Light Scattering (DLS) using a ZetaSizer™ Nano ZS™ (Malvern Instruments, UK). He/Ne laser tuned to 633 nm wavelength was used as the light source. Data were measured from the scattered intensity data conducted in backscattering detection mode (measurement angle=173). Measurements were an average of 10 runs of two cycles each per sample. Z-Average size was reported as the particle size, and is defined as the harmonic intensity averaged particle diameter.
as §1

[4] = Table 6, GFP-encoded LNPs, CT10, N/P 8
[5] = Table 7, EPO mRNA LNPs, LM02, N/P 6

Encapsulation Efficiency (%) [1, 4]: 51.1%
Encapsulation Efficiency (%) [1, 5]: 95.9%
pKa ([2]; Table 1, formulated lipid nanoparticles, TNS assay, read-out: Exp. pKa): 6.45
pKa ([2]; Table 8, read-out: Exp.pKa): 6.45
Diameter (Z. ave, nm) [3, 4]: 121.5 nm
Polydispersity Index (PDI) [3, 4]: 0.39
Diameter (Z. ave, nm) [3, 5]: 65.3 nm
Polydispersity Index (PDI) [3, 5]: 0.09
Structure (SMILES): CCCCC/C=C\C/C=C\CCCCCCCC(=O)O[C@@H]1[C@@H](OC(=O)CCCCCCC/C=C\C/C=C\CCCCC)CO[C@@H]1COC(=O)C1CCN(C)CC1 (racemic) [PNI 325]
immune response to OVA antigen loaded LNPs (C57BL/6 mice): effectively elicit an immune response similar to OVA antigen
